Source: the NIST ThermoML archive (doi:10.1021/je100819f)
Numbers after ± are expanded uncertainties.

Conditions: Crystal; DTA

Normal melting temperature: 197.5 ± 0.7 °C
Structure (SMILES): O=C1C=CC(=O)N1c1cc(F)c(Br)c(F)c1 [1-(4-bromo-3,5-difluorophenyl)-1H-pyrrole-2,5-dione]
